Bounds are passed on as bounds.

The target of assay [1] is T1, human CRTH2 (Homo sapiens, UniProt Q9Y5Y4, V204A).
T1 sequence (Q9Y5Y4 1-395 V204A): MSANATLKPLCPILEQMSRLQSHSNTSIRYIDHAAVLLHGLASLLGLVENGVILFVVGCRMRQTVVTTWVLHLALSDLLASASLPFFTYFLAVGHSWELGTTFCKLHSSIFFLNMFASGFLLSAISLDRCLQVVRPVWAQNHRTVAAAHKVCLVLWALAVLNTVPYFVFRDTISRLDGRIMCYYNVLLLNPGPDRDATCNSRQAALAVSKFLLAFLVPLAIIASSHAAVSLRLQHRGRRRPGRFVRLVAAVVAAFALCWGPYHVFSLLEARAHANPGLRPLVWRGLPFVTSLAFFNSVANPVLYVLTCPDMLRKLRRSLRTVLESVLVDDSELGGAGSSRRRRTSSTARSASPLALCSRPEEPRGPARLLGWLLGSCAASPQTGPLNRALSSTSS
Nature of the assay: Functional antagonist BRET assay on HEK293 cells stably expressing human CRTH2-Rluc and GFP2-β-arr2. The class given is cell-based. More on the design: expressed in transfected cells. To be noted: read-out: Antag. IC50. In outline:
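Cells (2×10^6/mL in D-PBS with glucose) were preincubated 15 min with antagonist at 1% DMSO, then agonist and DeepBlueC were co-injected. Emission at 400 and 515 nm was read 5 s later, and the mBRET ratio (515/400 nm) was used to derive IC50 from concentration–response curves.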

In assay [2] the target is T1, human CRTH2. Description: Receptor binding assay: [3H]PGD2 competition binding on whole COS-7 cells transiently transfected with CRTH2 (also stable HEK293 cells). More on the design: expressed in transfected cells; host or cells: COS-7 (transient, calcium phosphate). The method in brief: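 Whole COS-7 cells transiently transfected with human CRTH2 (calcium phosphate), or stable HEK293 cells, competed against 0.1 nM [3H]PGD2 in HBSS/10 mM HEPES with 1% DMSO, 3 h at 4 °C. Nonspecific binding with 10 μM PGD2; scintillation counting, duplicates. IC50 from curve fitting.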

Setting [3] is: functional antagonist assay, Table 3.
The mark [4] stands for this setting: receptor binding assay, Table 3.
The mark [5] stands for this setting: BRET, antagonist incubated 15 minutes prior to agonist.
Where [6] appears, read: competition with 0.1 nM [3H]PGD2, whole cells, 3 h at 4° C.

As for `O=C(O)COc1ccc(Br)cc1-c1nc(Cc2cccc(Cl)c2)no1` [D130, {4-Bromo-2-[3-(3-chlorobenzyl)-[1,2,4]oxadiazol-5-yl]phenoxy}acetic acid], the IC50 on human CRTH2 [1] (setting [3]) and at human CRTH2 [2] (setting [4]) was < 0.5 µM throughout.
With `O=C(O)COc1ccc(Br)cc1-c1coc(Cc2c(Cl)cccc2Cl)n1` [D91, {4-Bromo-2-[2-(2,6-dichlorobenzyl)oxazol-4-yl]phenoxy}acetic acid], the IC50 at human CRTH2 [1] (setting [5]) and at human CRTH2 [2] (setting [6]) was < 0.5 µM in each case.
Take `Cc1ccc(-n2cc(C(=O)c3cc(Br)ccc3OC(C)C(=O)O)cn2)c(Br)c1` (centres unmarked) [D50, 2-{4-Bromo-2-[1-(2-bromo-4-methylphenyl)-1H-pyrazole-4-carbonyl]phenoxy}propionic acid]: the IC50 at human CRTH2 [1] (setting [5]) and on human CRTH2 [2] (setting [6]) was < 0.5 µM each time.
`O=C(O)COc1ccc(Br)cc1C(=O)c1cnn(-c2ccc(OC(F)(F)F)cc2)c1` [D32]: the IC50 at human CRTH2 [1] (setting [5]) and at human CRTH2 [2] (setting [6]) was < 0.5 µM in each case.
On to `O=C(O)COc1ccc(Br)cc1-c1nc(Cc2ccc(Cl)c(Cl)c2)no1` [D123, {4-Bromo-2-[3-(3,4-dichlorobenzyl)-[1,2,4]oxadiazol-5-yl]-phenoxy}acetic acid], for which the IC50 on human CRTH2 [1] (setting [3]) and on human CRTH2 [2] (setting [4]) was < 0.5 µM throughout.
With `CC(Oc1ccc(Br)cc1C(=O)c1cnn(-c2ccccc2C(C)C)c1)C(=O)O` (centres unmarked) [D79, 2-{4-Bromo-2-[1-(2-isopropylphenyl)-1H-pyrazole-4-carbonyl]phenoxy}propionic acid], the IC50 on human CRTH2 [1] (setting [5]) and at human CRTH2 [2] (setting [6]) was < 0.5 µM in each case.
Regarding `O=C(O)COc1ccc(Br)cc1-c1coc(Cc2ccccc2)n1` [D88, [2-(2-Benzyloxazol-4-yl)-4-bromophenoxy]acetic acid], the IC50 on human CRTH2 [1] (setting [5]) and at human CRTH2 [2] (setting [6]) was < 0.5 µM throughout.
With `Cc1ccc(-n2cc(C(=O)c3cc(Br)ccc3OC(C)C(=O)O)cn2)c(C)c1` (centres unmarked) [D55, 2-{4-Bromo-2-[1-(2,4-dimethylphenyl)-1H-pyrazole-4-carbonyl]phenoxy}propionic acid], the IC50 at human CRTH2 [1] (setting [5]) and on human CRTH2 [2] (setting [6]) was < 0.5 µM throughout.
On to `O=C(O)COc1ccc(Br)cc1C(=O)c1cnn(-c2ccccc2F)c1` [D22, 4-Bromo-2-[1-(2-fluorophenyl)-1H-pyrazole-4-carbonyl]phenoxyacetic acid], for which the IC50 at human CRTH2 [1] (setting [5]) and at human CRTH2 [2] (setting [6]) was < 0.5 µM each time.
Consider `CC(Oc1ccc(Br)cc1C(=O)c1cnn(-c2c(Cl)cccc2Cl)c1)C(=O)O` (centres unmarked) [D39, 2-{4-Bromo-2-[1-(2,6-dichlorophenyl)-1H-pyrazole-4-carbonyl]phenoxy}propionic acid], for which the IC50 at human CRTH2 [1] (setting [5]) and on human CRTH2 [2] (setting [6]) was < 0.5 µM each time.
`CCc1cc(Br)ccc1-n1cc(C(=O)c2cc(Br)ccc2OC(C)C(=O)O)cn1` (centres unmarked) [D46, 2-{4-Bromo-2-[1-(4-bromo-2-ethylphenyl)-1H-pyrazole-4-carbonyl]phenoxy}propionic acid]: the IC50 at human CRTH2 [1] (setting [5]) and at human CRTH2 [2] (setting [6]) was < 0.5 µM throughout.
`O=C(O)COc1ccc(Br)cc1-c1nc(Cc2ccccc2)no1` [D115, [2-(3-Benzyl-[1,2,4]oxadiazol-5-yl)-4-bromo-phenoxy]-acetic acid]: the IC50 on human CRTH2 [1] (setting [3]) and on human CRTH2 [2] (setting [4]) was < 0.5 µM in each case.
Take `O=C(O)COc1ccc(Br)cc1C(=O)c1cnn(Cc2ccccc2)c1` [D56, [2-(1-Benzyl-1H-pyrazole-4-carbonyl)-4-bromophenoxy]acetic acid]: the IC50 at human CRTH2 [1] (setting [5]) and at human CRTH2 [2] (setting [6]) was < 0.5 µM in each case.
Consider `O=C(O)COc1ccc(Br)cc1C(=O)c1cnn(-c2ccc(Cl)c(Cl)c2)c1` [D61, {4-Bromo-2-[1-(3,4-dichlorophenyl)-1H-pyrazole-4-carbonyl]phenoxy}acetic acid], for which the IC50 on human CRTH2 [1] (setting [5]) and on human CRTH2 [2] (setting [6]) was < 0.5 µM each time.
Consider `O=C(O)COc1ccc([N+](=O)[O-])cc1C(=O)c1cnn(-c2ccccc2Cl)c1` [D27, 4-Nitro-2-[1-(2-chlorophenyl)-1H-pyrazole-4-carbonyl]phenoxyacetic acid], for which the IC50 on human CRTH2 [1] (setting [5]) and on human CRTH2 [2] (setting [6]) was < 0.5 µM in each case.
With “{4-Bromo-2-[1-(4-bromo-2-chlorophenyl)-1H-pyrazole-4-carbonyl]phenoxy}acetic acid [D67]”, the IC50 at human CRTH2 [1] (setting [5]) and on human CRTH2 [2] (setting [6]) was < 0.5 µM each time.
On to `O=C(O)COc1ccc(Br)cc1-c1nc(-c2ccc(Cl)cc2)no1` [D102, {4-Bromo-2-[3-(4-chlorophenyl)-[1,2,4]oxadiazol-5-yl]phenoxy}acetic acid], for which the IC50 at human CRTH2 [1] (setting [3]) and on human CRTH2 [2] (setting [4]) was < 0.5 µM in each case.
Consider `O=C(O)COc1ccc(Br)cc1C(=O)c1cnn(-c2cccc(Cl)c2)c1` [D15, 4-Bromo-2-[1-(3-chloro-phenyl)-1H-pyrazole-4-carbonyl]phenoxyacetic acid], for which the 50% inhibitory concentration (IC50) at human CRTH2 [1] (setting [5]) and on human CRTH2 [2] (setting [6]) was < 0.5 µM each time.
As to `O=C(O)COc1ccc(Br)cc1-c1nc(Cc2ccc(F)cc2)no1` [D116, {4-Bromo-2-[3-(4-fluoro-benzyl)-[1,2,4]oxadiazol-5-yl]-phenoxy}-acetic acid], the IC50 at human CRTH2 [1] (setting [3]) and at human CRTH2 [2] (setting [4]) was < 0.5 µM each time.
Take `O=C(O)COc1ccccc1C(=O)c1cnn(-c2ccccc2)c1` [D2, 2-(1-Phenyl-1H-pyrazole-4-carbonyl)phenoxyacetic acid]: the IC50 is 0.5 to 5 µM at human CRTH2 [1] (setting [5]) and < 0.5 µM at human CRTH2 [2] (setting [6]).
For the compound `CCc1ccc(OCC(=O)O)c(C(=O)c2cnn(-c3ccccc3Br)c2)c1` [D30, 4-Ethyl-2-[1-(2-bromophenyl)-1H-pyrazole-4-carbonyl]phenoxyacetic acid], the IC50 on human CRTH2 [1] (setting [5]) and at human CRTH2 [2] (setting [6]) was < 0.5 µM throughout.
As for `O=C(O)COc1ccccc1C=NNC(=O)c1ccc2ccccc2c1O` [D154], the IC50 on human CRTH2 [1] (setting [5]) and at human CRTH2 [2] (setting [6]) was < 0.5 µM throughout.
For `Cc1ccc(CN2C(=O)SC(Cc3cc(Br)ccc3OCC(=O)O)C2=O)cc1` (centres unmarked) [D142, 4-Bromo-2-[3-(4-methylbenzyl)-2,4-dioxothiazolidin-5-ylmethyl]phenoxyacetic acid], the IC50 on human CRTH2 [1] (setting [5]) and at human CRTH2 [2] (setting [6]) was < 0.5 µM throughout.
As for `O=C(O)COc1ccc(Br)cc1C(=O)c1cnn(-c2ccc(C(F)(F)F)cc2)c1` [D81, {4-Bromo-2-[1-(4-trifluoromethylphenyl)-1H-pyrazole-4-carbonyl]phenoxy}acetic acid], the IC50 on human CRTH2 [1] (setting [5]) and on human CRTH2 [2] (setting [6]) was < 0.5 µM each time.
Regarding `O=C(O)COc1ccc(Br)cc1-c1nc(-c2cccc(C(F)(F)F)c2)no1` [D112, {4-Bromo-2-[3-(3-trifluoromethylphenyl)-[1,2,4]oxadiazol-5-yl]phenoxy}-acetic acid], the IC50 on human CRTH2 [1] (setting [3]) and at human CRTH2 [2] (setting [4]) was < 0.5 µM each time.
For the compound `COc1ccc(-c2nc(-c3cc(Br)ccc3OCC(=O)O)co2)cc1` [D84, {4-Bromo-2-[2-(4-methoxyphenyl)oxazol-4-yl]phenoxy}acetic acid], the IC50 at human CRTH2 [1] (setting [5]) was 0.5 to 5 µM; at human CRTH2 [2] (setting [6]), < 0.5 µM.
Turning to `CCOc1ccccc1-n1cc(C(=O)c2cc(Br)ccc2OCC(=O)O)cn1` [D41, {4-Bromo-2-[1-(2-ethoxyphenyl)-1H-pyrazole-4-carbonyl]phenoxy}acetic acid], the IC50 at human CRTH2 [1] (setting [5]) and at human CRTH2 [2] (setting [6]) was < 0.5 µM in each case.
For `O=C(O)COc1ccc(Br)cc1CC1SC(=O)N(CC(=O)c2ccc(Cl)cc2)C1=O` (centres unmarked) [D143, 4-Bromo-2-{3-[2-(4-chlorophenyl)-2-oxoethyl]-2,4-dioxothiazolidin-5-ylmethyl}phenoxyacetic acid], the IC50 at human CRTH2 [1] (setting [5]) and at human CRTH2 [2] (setting [6]) was < 0.5 µM throughout.

A word on the IC50: it is the point on the concentration scale where inhibition reaches its midpoint.

For the origin of these results see US20110269763A1, “CRTH2 receptor ligands for medicinal uses” (7TM Pharma A/S, priority 2004, published 2011).
